{"source": "patent US12385042B2", "about": "“Cell-penetrating peptides” (VECTIOPEP OÜ, priority 2019, dated 2025)", "key": {"[1]": {"test_system": "U87 MG-luc2 human glioma cells, stably expressing luc2", "assay": "Luciferase gene downregulation by CPP/siRNA (siLuc2) complexes", "type": "cell-based", "details": "for luciferase downregulation efficiency (in words) / Red (%) (reduction, based on remaining luminescence on U87 cells post-treatment): CPP/siRNA complexes; for luciferase downregulation efficiency (in words): comparison between CPPs; for Red (%) (reduction, based on remaining luminescence on U87 cells post-treatment): siRNA against luciferase; for IC50: read-out: IC50 (siRNA concentration), luciferase downregulation; for remaining reporter activity: molar ratio 30 (MR30, peptide to siRNA), untreated cells 100%", "method_in_brief": "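U87-luc2 cells in serum-containing medium got peptide/siLuc2 complexes formed in water (pH 5.3-6.3, MR 40:1, 1 h RT) at 25 nM siRNA for 4 h at 37 °C, then 20 h more. Lysate luminescence normalized to protein; in other runs, MR30/10 nM in HEPES-FBS, or varied MR at 50 nM, vs untreated (100%).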"}, "[2]": {"test_system": "CHO stably expressing green fluorescent protein (GFP)", "assay": "GFP gene downregulation by CPP/siGFP complexes (lysate fluorescence, FACS, confocal)", "type": "cell-based", "details": "for GFP signal in confocal images: live cells treated with CPP/siGFP complexes", "method_in_brief": "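CHO-GFP cells (5×10^5/well) in serum-containing medium exposed 4 h at 37 °C to CPP/siGFP complexes (peptide:siRNA molar ratio 40:1, siRNA 100 nM final), then 44 h further culture. GFP read as protein-normalized lysate fluorescence, by FACS (fraction below 0.1% untreated-cell signal), or by confocal imaging after 48 h.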"}, "[3]": {"assay": "Fluorescent dye (PicoGreen) intercalation and heparin displacement assay of CPP/siRNA complexes", "type": "physicochemical", "details": "for accessibility of siRNA in complexes (dye intercalation): MR30, no heparin", "method_in_brief": "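PicoGreen fluorescence (ex 492/em 535 nm) of CPP/siRNA complexes in water after 5 min with dye, reporting siRNA accessibility. In the displacement arm, complexes were first incubated with heparin at varying concentrations for 30 min at 37 °C before adding PicoGreen.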"}, "[4]": {"test_system": "organs of BALB/c mice", "assay": "Gene delivery in vivo (CPP/pDNA, i.v., organ luminescence)", "parameters": "species or system mouse", "details": "for reporter gene expression in organs after i.v. CPP/pDNA (in words): CR2 or CR4, 50 μg or 20 μg pDNA, 24 h", "experimental": "For in vivo pDNA delivery studies BALB/c mice were used. Each animal received a single […] intravenous (i.v.) injection of the complexes at CR2 or CR4. Two doses of pDNA […] were used. After 24 hr, the mice were sacrificed using cervical dislocation, and whole organs were harvested and snap-frozen on dry ice. The organs were homogenized, and luminescence was measured."}, "[5]": {"details": "complexes formed at MR30, average"}}, "note": "“Also recorded” adds a separate entry of the source. Like-named read-outs stand apart in the source and are kept apart here. Where a SMILES comes first, the peptide text is derived from it. Bridges are numbered along the chain shown (N, C = ends). Roman numbers before positions name the chains, in order. [ ]: non-standard residue; d: D form. The star is where a group is joined. Arachidoyl = CCCCCCCCCCCCCCCCCCCC(=O)*; Stearoyl = CCCCCCCCCCCCCCCCCC(=O)*; Orn = NCCC[C@H](N)C(=O)O"}
{"smiles": "CCCCCCCCCCCCCCCCCC(=O)N[C@@H](Cc1c[nH]cn1)C(=O)N[C@@H](Cc1c[nH]cn1)C(=O)N[C@@H](Cc1ccc(O)cc1)C(=O)N[C@@H](Cc1c[nH]cn1)C(=O)N[C@@H](Cc1c[nH]cn1)C(=O)NCC(=O)NCCC[C@H](N)C(=O)N[C@H](C(=O)N[C@@H](CC(C)C)C(=O)N[C@@H](CC(C)C)C(=O)N[C@@H](CCCCN)C(=O)N[C@@H](C)C(=O)N[C@@H](CC(C)C)C(=O)N[C@@H](CCCCN)C(=O)N[C@@H](C)C(=O)N[C@@H](CC(C)C)C(=O)N[C@@H](C)C(=O)N[C@@H](CCCCN)C(=O)N[C@@H](C)C(=O)N[C@H](C(=O)N[C@@H](CC(C)C)C(N)=O)[C@@H](C)CC)[C@@H](C)CC", "note": "[NF71] (I: H-[Orn]ILLKALKALAKAIL-NH2 / II: Stearoyl-HHYHHG; amide I:1-II:C)", "values": [{"measurement": "luciferase downregulation efficiency (in words)", "setting": "[1]", "value": "most efficient peptides even at low MRs"}, {"measurement": "Red (%) (reduction, based on remaining luminescence on U87 cells post-treatment)", "setting": "[1]", "value": 88, "unit": "%"}, {"measurement": "IC50", "setting": "[1]; complexes formed at MR20", "value": 11.1, "unit": "nM"}, {"measurement": "IC50", "setting": "[1]; [5]", "value": 6.8, "unit": "nM"}, {"measurement": "remaining reporter activity", "setting": "[1]", "value": 13, "unit": "%"}, {"measurement": "GFP signal in confocal images", "setting": "[2]", "value": "detected GFP signal was the lowest"}, {"measurement": "downregulation of GFP (average, cell lysate fluorescence)", "setting": "[2]; siGFP 100 nM", "value": "lower than with H6^1-C20 or H8-C20"}, {"measurement": "siRNA accessible", "setting": "[3]; 0.5 mg/ml heparin, complexes pre-formed at MR30", "value": 17, "unit": "%"}, {"measurement": "accessibility of siRNA in complexes (dye intercalation)", "setting": "[3]", "value": "low accessibility of siRNA"}, {"measurement": "stability of complexes to heparin displacement (in words)", "setting": "[3]; complexes pre-formed at MR30", "value": "less resistant to heparin displacement than NF55/siRNA"}, {"measurement": "reporter gene expression in organs after i.v. CPP/pDNA (in words)", "setting": "[4]", "value": "high reporter gene expression in liver and lungs"}, {"measurement": "transfection level in liver at CR2 compared to CR4", "setting": "[4]; liver", "value": 7, "unit": "fold"}, {"measurement": "transfection level in lungs at CR2 compared to CR4", "setting": "[4]; lungs", "value": 3, "unit": "fold"}]}
{"smiles": "CCCCCCCCCCCCCCCCCCCC(=O)N[C@@H](Cc1c[nH]cn1)C(=O)N[C@@H](Cc1c[nH]cn1)C(=O)N[C@@H](Cc1c[nH]cn1)C(=O)N[C@@H](Cc1c[nH]cn1)C(=O)N[C@@H](Cc1ccc(O)cc1)C(=O)N[C@@H](Cc1c[nH]cn1)C(=O)N[C@@H](Cc1c[nH]cn1)C(=O)NCC(=O)NCCC[C@H](N)C(=O)N[C@H](C(=O)N[C@@H](CC(C)C)C(=O)N[C@@H](CC(C)C)C(=O)N[C@@H](CCCCN)C(=O)N[C@@H](C)C(=O)N[C@@H](CC(C)C)C(=O)N[C@@H](CCCCN)C(=O)N[C@@H](C)C(=O)N[C@@H](CC(C)C)C(=O)N[C@@H](C)C(=O)N[C@@H](CCCCN)C(=O)N[C@@H](C)C(=O)N[C@H](C(=O)N[C@@H](CC(C)C)C(N)=O)[C@@H](C)CC)[C@@H](C)CC", "note": "[NF70] (I: H-[Orn]ILLKALKALAKAIL-NH2 / II: Arachidoyl-HHHHYHHG; amide I:1-II:C)", "values": [{"measurement": "luciferase downregulation efficiency (in words)", "setting": "[1]; listed as H6-C20", "value": "equally strong downregulation of the luciferase gene; also recorded: at MR40 it was even more efficient than PF6 or H4-C18"}, {"measurement": "Red (%) (reduction, based on remaining luminescence on U87 cells post-treatment)", "setting": "[1]", "value": 92, "unit": "%"}, {"measurement": "downregulation of luciferase activity", "setting": "[1]; H6 series, effect of fatty acid length", "value": "up to 95%"}, {"measurement": "IC50", "setting": "[1]; complexes formed at MR30, average, listed as H6-C20", "value": 14.7, "unit": "nM"}, {"measurement": "IC50", "setting": "[1]; [5]", "value": 14.8, "unit": "nM"}, {"measurement": "IC50", "setting": "[1]; complexes formed at MR30 and MR40, similar average value", "value": "14.7 to 14.8", "unit": "nM"}, {"measurement": "remaining reporter activity", "setting": "[1]", "value": 15, "unit": "%"}, {"measurement": "GFP signal in confocal images", "setting": "[2]", "value": "detected GFP signal was the lowest"}, {"measurement": "accessibility of siRNA in complexes (dye intercalation)", "setting": "[3]", "value": "low accessibility of siRNA"}, {"measurement": "reporter gene expression in organs after i.v. CPP/pDNA (in words)", "setting": "[4]", "value": "very low transfection levels in vivo"}]}
